From patent publication US20030152512A1, “Imaging thrombus with glycoprotein llb/llla antagonists” (priority 2001, published 2003)
Each block holds one compound with its values, some of them ahead of it. Non-standard residues stand in square brackets, D forms with d. Residues, ends and D or L forms follow the SMILES beside them. *: point of attachment. X1 = O=C(c1ccc(NN=Cc2ccccc2S(=O)(=O)O)nc1)*; NMeR = CN[C@@H](CCCNC(=N)N)C(=O)O; HYNIC = NNc1ccc(C(=O)*)cn1; 3Amb = NCc1cccc(C(=O)O)c1

Key:
[1] = Blood clearance in canine deep vein thrombosis (DVT) model; settings: both, mongrel, dog, iv
Procedure: (§1) Canine Deep Vein Thrombosis Model: This model incorporates the triad of events (hypercoagulatible state, period of stasis, low shear environment) essential for the formation of a venous fibrin-rich actively growing thrombus. The procedure was as follows: Adult mongrel dogs of either sex (9-13 kg) were anesthetized with pentobarbital sodium (35 mg/kg,i.v.) and ventilated with room air via an endotracheal tube (12 strokes/min, 25 ml/kg). For arterial pressure determination, the right femoral artery was cannulated with a saline-filled polyethylene catheter (PE-240) and connected to a Statham pressure transducer (P23ID; Oxnard, Calif.). Mean arterial blood pressure was determined via damping the pulsatile pressure signal. Heart rate was monitored using a cardiotachometer (Biotach, Grass Quincy, Mass.) triggered from a lead II electrocardiogram generated by limb leads. The right femoral vein was cannulated (PE-240) for drug administration. A 5 cm segment of both jugular veins was isolated, freed from fascia and circumscribed with silk suture. A microthermister probe was placed on the vessel which serves as an indirect measure of venous flow. A balloon embolectomy catheter was utilized to induce the 15 min period of stasis during which time a hypercoagulatible state was then induced using 5 U thrombin (American Diagnosticia, Greenwich Conn.) administered into the occluded segment. Fifteen minutes later, flow was reestablished by deflating the balloon. The radiopharmaceutical was infused during the first 5 minutes of reflow and the rate of incorporation monitored using gamma scintigraphy.

venous thrombus = test: Thrombus imaging in canine deep vein thrombosis (DVT) model, gamma scintigraphy (camera ROI); assay type: in vivo, dog; settings: for efficacy as thrombus imaging agent (in words): dog DVT model; for Thrombus to Blood Ratio in DVT Model (Camera ROI) / Thrombus to Muscle Ratio in DVT Model (Camera ROI): dog
Procedure: as §1

Platelet GPIIb/IIIa = molecular target: T1, Platelet GPIIb/IIIa (Canis lupus familiaris, UniProt A0A8I3N5G5+A0A8I3PMU9); test: Platelet GPIIb/IIIa binding assay (inhibition of 125I-fibrinogen binding to activated platelets); settings: reagents (compounds of Examples 1-3); activated canine platelets
T1 construct: from tissue
T1 sequence (A0A8I3N5G5 1-1047): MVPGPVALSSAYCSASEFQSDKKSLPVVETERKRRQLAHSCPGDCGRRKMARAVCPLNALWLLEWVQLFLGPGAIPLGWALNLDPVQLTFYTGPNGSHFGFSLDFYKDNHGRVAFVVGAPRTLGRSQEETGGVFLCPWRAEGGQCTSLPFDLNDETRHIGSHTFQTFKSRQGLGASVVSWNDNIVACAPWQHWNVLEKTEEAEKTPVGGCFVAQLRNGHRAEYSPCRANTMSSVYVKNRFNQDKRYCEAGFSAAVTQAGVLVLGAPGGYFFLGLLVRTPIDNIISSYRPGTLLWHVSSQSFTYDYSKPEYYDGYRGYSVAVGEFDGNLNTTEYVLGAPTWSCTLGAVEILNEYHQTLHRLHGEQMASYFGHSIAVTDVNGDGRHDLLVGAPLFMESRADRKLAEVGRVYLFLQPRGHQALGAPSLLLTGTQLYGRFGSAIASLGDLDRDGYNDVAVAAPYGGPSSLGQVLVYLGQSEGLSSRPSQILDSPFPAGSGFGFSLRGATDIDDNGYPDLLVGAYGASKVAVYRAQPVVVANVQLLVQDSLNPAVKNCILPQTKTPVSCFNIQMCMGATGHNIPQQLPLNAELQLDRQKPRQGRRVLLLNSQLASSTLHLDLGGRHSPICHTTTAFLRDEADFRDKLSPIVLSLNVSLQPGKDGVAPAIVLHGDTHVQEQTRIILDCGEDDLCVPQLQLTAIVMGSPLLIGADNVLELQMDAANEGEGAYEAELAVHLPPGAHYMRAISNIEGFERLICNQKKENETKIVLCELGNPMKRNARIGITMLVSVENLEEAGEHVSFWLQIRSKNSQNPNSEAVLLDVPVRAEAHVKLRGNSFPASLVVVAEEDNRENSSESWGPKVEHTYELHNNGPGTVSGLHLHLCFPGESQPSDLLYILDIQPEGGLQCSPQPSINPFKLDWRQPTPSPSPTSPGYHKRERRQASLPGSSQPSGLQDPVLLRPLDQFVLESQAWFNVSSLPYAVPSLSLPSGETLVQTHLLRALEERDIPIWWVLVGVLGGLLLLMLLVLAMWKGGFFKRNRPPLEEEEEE
T1 sequence (A0A8I3PMU9 1-919): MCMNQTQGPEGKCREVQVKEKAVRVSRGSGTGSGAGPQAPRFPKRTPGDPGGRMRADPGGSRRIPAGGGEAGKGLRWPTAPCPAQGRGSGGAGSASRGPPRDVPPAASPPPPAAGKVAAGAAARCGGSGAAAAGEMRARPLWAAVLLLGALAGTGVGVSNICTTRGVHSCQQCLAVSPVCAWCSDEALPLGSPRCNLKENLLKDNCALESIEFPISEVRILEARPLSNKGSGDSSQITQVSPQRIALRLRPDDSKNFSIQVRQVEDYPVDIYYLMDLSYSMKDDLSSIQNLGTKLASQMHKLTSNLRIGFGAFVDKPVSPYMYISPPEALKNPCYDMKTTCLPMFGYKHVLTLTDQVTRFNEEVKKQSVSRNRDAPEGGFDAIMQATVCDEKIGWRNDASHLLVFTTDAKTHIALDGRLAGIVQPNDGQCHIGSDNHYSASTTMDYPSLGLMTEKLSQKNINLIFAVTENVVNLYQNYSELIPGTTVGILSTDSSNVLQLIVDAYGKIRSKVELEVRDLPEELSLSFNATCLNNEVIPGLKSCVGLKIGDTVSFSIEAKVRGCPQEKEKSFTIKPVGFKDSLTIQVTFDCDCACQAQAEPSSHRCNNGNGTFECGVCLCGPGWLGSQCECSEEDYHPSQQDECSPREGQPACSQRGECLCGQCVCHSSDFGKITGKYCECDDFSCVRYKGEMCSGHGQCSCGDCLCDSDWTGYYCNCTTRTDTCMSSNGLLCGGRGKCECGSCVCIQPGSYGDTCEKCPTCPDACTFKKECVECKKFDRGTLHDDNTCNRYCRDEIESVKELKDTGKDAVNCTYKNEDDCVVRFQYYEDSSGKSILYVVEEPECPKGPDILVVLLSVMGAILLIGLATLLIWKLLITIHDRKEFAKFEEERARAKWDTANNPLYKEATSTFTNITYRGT
Procedure: Platelet GPIIb/IIIa Binding Assay:
During isolation, platelets were rendered quiescent by the addition of aspirin and when appropriate, primed by the addition of PGE 1. Experimentation was completed in a microtiter format with final concentrations between 1 and 2×10^7 platelets/well. Platelets were activated by the addition of CaCl2 (2 mM) and thrombin (0.2 U/mL) while non-activated platelets received buffer. Hirudin (0.5 U/mL) was added to stop the activation reaction.

Structure (SMILES): CC(C)[C@H]1NC(=O)c2cc(cc(CNC(=O)[C@H](CC(=O)O)NC(=O)c3ccc(NN)nc3)c2)CNC(=O)[C@H](CC(=O)O)NC(=O)CNC(=O)[C@H](CCCNC(=N)N)N(C)C1=O (99mTc complex, metal not drawn) [Example 4]
tissue uptake at 0 h [1]: 0.141 %ID/g
tissue uptake at 0.25 h [1]: 0.07 %ID/g
tissue uptake at 0.5 h [1]: 0.067 %ID/g
tissue uptake at 1 h [1]: 0.053 %ID/g
tissue uptake at 1.5 h [1]: 0.046 %ID/g
tissue uptake at 2 h [1]: 0.045 %ID/g
efficacy as thrombus imaging agent (in words) (venous thrombus): effective thrombus imaging agents
Thrombus to Blood Ratio in DVT Model (Camera ROI) (venous thrombus; time 15 min, listed as Ex. 4): 2.00 ± 0.25
Thrombus to Muscle Ratio in DVT Model (Camera ROI) (venous thrombus; time 15 min, listed as Ex. 4): 3.18 ± 0.45
Thrombus to Blood Ratio in DVT Model (Camera ROI) (venous thrombus; time 30 min): 2.29 ± 0.60
Thrombus to Muscle Ratio in DVT Model (Camera ROI) (venous thrombus; time 30 min): 4.31 ± 1.33
Thrombus to Blood Ratio in DVT Model (Camera ROI) (venous thrombus; time 60 min, listed as Ex. 4): 2.86 ± 0.31
Thrombus to Muscle Ratio in DVT Model (Camera ROI) (venous thrombus; time 60 min, listed as Ex. 4): 4.31 ± 0.79
Thrombus to Blood Ratio in DVT Model (Camera ROI) (venous thrombus; time 120 min): 3.36 ± 0.99
Thrombus to Muscle Ratio in DVT Model (Camera ROI) (venous thrombus; time 120 min): 4.70 ± 1.05

Structure (SMILES): CN1C(=O)[C@@H](CCCCNC(=O)c2ccc(NN)nc2)NC(=O)c2cccc(c2)CNC(=O)[C@H](CC(=O)O)NC(=O)CNC(=O)[C@@H]1CCCNC(=N)N (99mTc complex, metal not drawn) [Example 5] (cyclo([NMeR]GD[3Amb][dK](HYNIC)))
tissue uptake at 0 h [1]: 0.11 ± 0.01 %ID/g
tissue uptake at 0.25 h [1]: 0.039 ± 0.003 %ID/g
tissue uptake at 0.5 h [1]: 0.027 ± 0.003 %ID/g
tissue uptake at 1 h [1]: 0.021 ± 0.002 %ID/g
tissue uptake at 1.5 h [1]: 0.018 ± 0.002 %ID/g
tissue uptake at 2 h [1]: 0.017 ± 0.002 %ID/g
efficacy as thrombus imaging agent (in words) (venous thrombus): effective thrombus imaging agents
Thrombus to Blood Ratio in DVT Model (Camera ROI) (venous thrombus; time 15 min, listed as Ex. 5): 1.64 ± 0.21
Thrombus to Muscle Ratio in DVT Model (Camera ROI) (venous thrombus; time 15 min, listed as Ex. 5): 2.12 ± 0.29
Thrombus to Blood Ratio in DVT Model (Camera ROI) (venous thrombus; time 30 min): 1.86 ± 0.23
Thrombus to Muscle Ratio in DVT Model (Camera ROI) (venous thrombus; time 30 min): 2.27 ± 0.29
Thrombus to Blood Ratio in DVT Model (Camera ROI) (venous thrombus; time 60 min, listed as Ex. 5): 2.13 ± 0.23
Thrombus to Muscle Ratio in DVT Model (Camera ROI) (venous thrombus; time 60 min, listed as Ex. 5): 2.66 ± 0.29
Thrombus to Blood Ratio in DVT Model (Camera ROI) (venous thrombus; time 120 min): 2.57 ± 0.25
Thrombus to Muscle Ratio in DVT Model (Camera ROI) (venous thrombus; time 120 min): 3.34 ± 0.18

Structure (SMILES): CC(C)[C@H]1NC(=O)c2cc(cc(CNC(=O)[C@H](CC(=O)O)NC(=O)c3ccc(N/N=C/c4ccccc4S(=O)(=O)O)nc3)c2)CNC(=O)[C@H](CC(=O)O)NC(=O)CNC(=O)[C@H](CCCNC(=N)N)N(C)C1=O [Example 1]
IC50 (Platelet GPIIb/IIIa): 7 nM

Structure (SMILES): CN1C(=O)[C@@H](CCCCNC(=O)c2ccc(NN=Cc3ccccc3S(=O)(=O)O)nc2)NC(=O)c2cccc(c2)CNC(=O)[C@H](CC(=O)O)NC(=O)CNC(=O)[C@@H]1CCCNC(=N)N [Example 2, cyclo{N-Me-Arg-Gly-Asp-Mamb-D-Lys([2-[[[5-[carbonyl]-2-pyridinyl]hydrazono]methyl]-benzenesulfonic acid])}] (cyclo([NMeR]GD[3Amb][dK](X1)))
IC50 (Platelet GPIIb/IIIa): 14 nM

IC50 (Platelet GPIIb/IIIa): 66 nM
Structure (SMILES): N=C(N)c1ccc(C2=NOC(CC(=O)NCC(NC(=O)c3ccc(NN=Cc4ccccc4S(=O)(=O)O)nc3)C(=O)O)C2)cc1 (stereo not drawn) [Example 3]

Structure (SMILES): CC(C)[C@H]1NC(=O)c2cc(cc(NC(=O)CCCCCNC(=O)c3ccc(NN)nc3)c2)CNC(=O)[C@H](CC(=O)O)NC(=O)CNC(=O)[C@H](CCCNC(=N)N)N(C)C1=O [Example 7, ^99mTc(cyclo(D-Val-NmeArg-Gly-Asp-Mamb(hydrazino-nicotinyl-5-Aca)))(tricine)(TPPTS), metal not drawn]
tissue uptake at 0 h [1]: 0.119 ± 0.003 %ID/g
tissue uptake at 0.25 h [1]: 0.08 ± 0.003 %ID/g
tissue uptake at 0.5 h [1]: 0.066 ± 0.004 %ID/g
tissue uptake at 1 h [1]: 0.059 ± 0.001 %ID/g
tissue uptake at 1.5 h [1]: 0.05 ± 0.002 %ID/g
tissue uptake at 2 h [1]: 0.049 ± 0.001 %ID/g
efficacy as thrombus imaging agent (in words) (venous thrombus): effective thrombus imaging agents
Thrombus to Blood Ratio in DVT Model (Camera ROI) (venous thrombus; time 15 min, listed as Ex. 7): 2.10 ± 0.10
Thrombus to Muscle Ratio in DVT Model (Camera ROI) (venous thrombus; time 15 min, listed as Ex. 7): 3.40 ± 0.30
Thrombus to Blood Ratio in DVT Model (Camera ROI) (venous thrombus; time 30 min): 3.10 ± 0.42
Thrombus to Muscle Ratio in DVT Model (Camera ROI) (venous thrombus; time 30 min): 4.80 ± 0.38
Thrombus to Blood Ratio in DVT Model (Camera ROI) (venous thrombus; time 60 min, listed as Ex. 7): 5.30 ± 0.91
Thrombus to Muscle Ratio in DVT Model (Camera ROI) (venous thrombus; time 60 min, listed as Ex. 7): 7.00 ± 1.40
Thrombus to Blood Ratio in DVT Model (Camera ROI) (venous thrombus; time 120 min): 6.60 ± 1.42
Thrombus to Muscle Ratio in DVT Model (Camera ROI) (venous thrombus; time 120 min): 9.90 ± 2.64
